Patent publication US9833497B2, “Human originated EGF domain proteins and use of the same” (CHENGDU SOURCEBIO LIMITED-LIABILITY COMPANY, priority 2013, dated 2017)

Assays:
Assay type in all cases: cell-based
E. coli DH5α = assay: Antibacterial activity: MIC and growth curve against E. coli DH5α in 96-well plate; conditions: minimal inhibitory concentration against E. coli DH5α; 96-well plate, 5×10^5 CFU/mL, 37° C., judged after 8 h
How it was run: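 MIC taken as lowest protein level with no bacterial growth, tracked by A600 every 30 min during 37 °C, 175 rpm culture. Two-fold protein series 50-12.5 μg/mL final, triplicate wells, against 5×10^5 CFU/mL of LB-washed mid-log cells.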

E. coli BL21 = assay: MIC against Gram-negative bacteria: E. coli BL21; conditions: for MIC (μg/mL) E. coli BL21 / MIC: E. coli BL21
How it was run: (§1)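 Two-fold serial dilutions of each purified human EGF domain protein, three replicate wells per level, were combined with bacteria at a final 5×10^5 CFU/mL in LB. Cultures were shaken at 175 rpm, 37° C. The MIC was taken as the minimum concentration preventing growth.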

Pseudomonas aeruginosa = assay: MIC against Gram-negative bacteria: Pseudomonas aeruginosa
How it was run: as §1

Klebsiella pneumonia = assay: MIC against Gram-negative bacteria: Klebsiella pneumonia
How it was run: as §1

Enterobacter cloacae = assay: MIC against Gram-negative bacteria: Enterobacter cloacae
How it was run: as §1

Aeromonas hydrophila = assay: MIC against Gram-negative bacteria: Aeromonas hydrophila
How it was run: as §1

Citrobacter diversus = assay: MIC against Gram-negative bacteria: Citrobacter diversus
How it was run: as §1

Moraxella catarrhalis = assay: MIC against Gram-negative bacteria: Moraxella catarrhalis
How it was run: as §1

Proteus mirabilis = assay: MIC against Gram-negative bacteria: Proteus mirabilis
How it was run: as §1

Proteus vulgaris = assay: MIC against Gram-negative bacteria: Proteus vulgaris
How it was run: as §1

Serratia marcescens = assay: MIC against Gram-negative bacteria: Serratia marcescens
How it was run: as §1

[1] = 96-well plate, 5×10^5 CFU/mL, 37° C., 10 h
[2] = P. aeruginosa, 10 h cultivation at 37° C.
[3] = K. pneumonia, 10 h cultivation at 37° C.
[4] = E. cloacae, 10 h cultivation at 37° C.
[5] = A. hydrophila, 10 h cultivation at 37° C.
[6] = C. diversus, 10 h cultivation at 37° C.
[7] = M. catarrhalis, 10 h cultivation at 37° C.
[8] = P. mirabilis, 10 h cultivation at 37° C.
[9] = P. vulgaris, 10 h cultivation at 37° C.
[10] = S. marcescens, 10 h cultivation at 37° C.

Substance: PRT63 (GCNFNNGGCHQDCFEGGDGSFLCGCRPGFRLLDDLVTCA; listed as Homo sapiens)
- MIC (E. coli DH5α): 12.5 µg/mL
- MIC (μg/mL) E. coli BL21 (E. coli BL21; [1]): 25 µg/mL
- MIC (μg/mL) P. aeruginosa (Pseudomonas aeruginosa; Pseudomonas aeruginosa, 96-well plate, 5×10^5 CFU/mL, 37° C., 10 h): 12.5 µg/mL
- MIC (μg/mL) K. pneumonia (Klebsiella pneumonia; Klebsiella pneumonia, 96-well plate, 5×10^5 CFU/mL, 37° C., 10 h): 25 µg/mL
- MIC (μg/mL) E. cloacae (Enterobacter cloacae; Enterobacter cloacae, 96-well plate, 5×10^5 CFU/mL, 37° C., 10 h): 12.5 µg/mL
- MIC (μg/mL) A. hydrophila (Aeromonas hydrophila; Aeromonas hydrophila, 96-well plate, 5×10^5 CFU/mL, 37° C., 10 h): 25 µg/mL
- MIC (μg/mL) C. diversus (Citrobacter diversus; Citrobacter diversus, 96-well plate, 5×10^5 CFU/mL, 37° C., 10 h): 12.5 µg/mL
- MIC (μg/mL) M. catarrhalis (Moraxella catarrhalis; Moraxella catarrhalis, 96-well plate, 5×10^5 CFU/mL, 37° C., 10 h): 25 µg/mL
- MIC (μg/mL) P. mirabilis (Proteus mirabilis; Proteus mirabilis, 96-well plate, 5×10^5 CFU/mL, 37° C., 10 h): 12.5 µg/mL
- MIC (μg/mL) P. vulgaris (Proteus vulgaris; Proteus vulgaris, 96-well plate, 5×10^5 CFU/mL, 37° C., 10 h): 25 µg/mL
- MIC (μg/mL) S. marcescens (Serratia marcescens; Serratia marcescens, 96-well plate, 5×10^5 CFU/mL, 37° C., 10 h): 12.5 µg/mL

Substance: PRT971 (DINDCDPNPCLNGGSCQDGVGSFSCSCLPGFAGPRCA; listed as Homo sapiens)
- MIC (E. coli DH5α): 50 µg/mL
- MIC (E. coli BL21; 10 h cultivation at 37° C.): 12.5 µg/mL
- MIC (Pseudomonas aeruginosa; [2]): 50 µg/mL
- MIC (Klebsiella pneumonia; [3]): 100 µg/mL
- MIC (Enterobacter cloacae; [4]): 25 µg/mL
- MIC (Aeromonas hydrophila; [5]): 50 µg/mL
- MIC (Citrobacter diversus; [6]): 12.5 µg/mL
- MIC (Moraxella catarrhalis; [7]): 25 µg/mL
- MIC (Proteus mirabilis; [8]): 50 µg/mL
- MIC (Proteus vulgaris; [9]): 12.5 µg/mL
- MIC (Serratia marcescens; [10]): 25 µg/mL

Substance: PRT547 (CQCHGHSDRCLPGSGVCVDCQHNTEGAHCERCQAGFVSSRDDPSAPCVS; listed as Homo sapiens)
- MIC (E. coli DH5α): 25 µg/mL
- MIC against E. coli BL21 (E. coli BL21; [1]): 12.5 µg/mL
- MIC against P. aeruginosa (Pseudomonas aeruginosa; [1]): 25 µg/mL
- MIC against K. pneumonia (Klebsiella pneumonia; [1]): 50 µg/mL
- MIC against E. cloacae (Enterobacter cloacae; [1]): 25 µg/mL
- MIC against A. hydrophila (Aeromonas hydrophila; [1]): 12.5 µg/mL
- MIC against C. diversus (Citrobacter diversus; [1]): 25 µg/mL
- MIC against M. catarrhalis (Moraxella catarrhalis; [1]): 50 µg/mL
- MIC against P. mirabilis (Proteus mirabilis; [1]): 25 µg/mL
- MIC against P. vulgaris (Proteus vulgaris; [1]): 12.5 µg/mL
- MIC against S. marcescens (Serratia marcescens; [1]): 25 µg/mL

Substance: PRT729 (GSNACNQPTHPNGDCSHFCFPVPNFQRVCGCPYGMRLASNHLTCE; listed as Homo sapiens)
- MIC (E. coli DH5α): 12.5 µg/mL
- MIC E. coli BL21 (E. coli BL21; [1]): 25 µg/mL
- MIC P. aeruginosa (Pseudomonas aeruginosa; [1]): 12.5 µg/mL
- MIC K. pneumonia (Klebsiella pneumonia; [1]): 25 µg/mL
- MIC E. cloacae (Enterobacter cloacae; [1]): 12.5 µg/mL
- MIC A. hydrophila (Aeromonas hydrophila; [1]): 25 µg/mL
- MIC C. diversus (Citrobacter diversus; [1]): 12.5 µg/mL
- MIC M. catarrhalis (Moraxella catarrhalis; [1]): 25 µg/mL
- MIC P. mirabilis (Proteus mirabilis; [1]): 12.5 µg/mL
- MIC P. vulgaris (Proteus vulgaris; [1]): 25 µg/mL
- MIC S. marcescens (Serratia marcescens; [1]): 50 µg/mL

Substance: PRT846 (CNCSVVGSLNVNRCNQTTGQCECRPGYQGLHCETCKEGFYLNYTSGLCQP; listed as Homo sapiens)
- MIC (E. coli DH5α): 25 µg/mL
- MIC (μg/mL) E. coli BL21 (E. coli BL21; 10 h cultivation at 37° C., 5×10^5 CFU/mL): 12.5 µg/mL
- MIC (μg/mL) P. aeruginosa (Pseudomonas aeruginosa; P. aeruginosa, 10 h cultivation at 37° C., 5×10^5 CFU/mL): 25 µg/mL
- MIC (μg/mL) K. pneumonia (Klebsiella pneumonia; K. pneumonia, 10 h cultivation at 37° C., 5×10^5 CFU/mL): 50 µg/mL
- MIC (μg/mL) E. cloacae (Enterobacter cloacae; E. cloacae, 10 h cultivation at 37° C., 5×10^5 CFU/mL): 12.5 µg/mL
- MIC (μg/mL) A. hydrophila (Aeromonas hydrophila; A. hydrophila, 10 h cultivation at 37° C., 5×10^5 CFU/mL): 12.5 µg/mL
- MIC (μg/mL) C. diversus (Citrobacter diversus; C. diversus, 10 h cultivation at 37° C., 5×10^5 CFU/mL): 12.5 µg/mL
- MIC (μg/mL) M. catarrhalis (Moraxella catarrhalis; M. catarrhalis, 10 h cultivation at 37° C., 5×10^5 CFU/mL): 12.5 µg/mL
- MIC (μg/mL) P. mirabilis (Proteus mirabilis; P. mirabilis, 10 h cultivation at 37° C., 5×10^5 CFU/mL): 12.5 µg/mL
- MIC (μg/mL) P. vulgaris (Proteus vulgaris; P. vulgaris, 10 h cultivation at 37° C., 5×10^5 CFU/mL): 12.5 µg/mL
- MIC (μg/mL) S. marcescens (Serratia marcescens; S. marcescens, 10 h cultivation at 37° C., 5×10^5 CFU/mL): 12.5 µg/mL

Substance: PRT982 (VLSPCESQPCQHGGQCRPSPGPGGGLTFTCHCAQPFWGPRCE; listed as Homo sapiens)
- MIC (E. coli DH5α): 50 µg/mL
- MIC (E. coli BL21; 10 h cultivation at 37° C.): 25 µg/mL
- MIC (Pseudomonas aeruginosa; [2]): 12.5 µg/mL
- MIC (Klebsiella pneumonia; [3]): 50 µg/mL
- MIC (Enterobacter cloacae; [4]): 12.5 µg/mL
- MIC (Aeromonas hydrophila; [5]): 25 µg/mL
- MIC (Citrobacter diversus; [6]): 50 µg/mL
- MIC (Moraxella catarrhalis; [7]): 12.5 µg/mL
- MIC (Proteus mirabilis; [8]): 50 µg/mL
- MIC (Proteus vulgaris; [9]): 12.5 µg/mL
- MIC (Serratia marcescens; [10]): 50 µg/mL
